Here are results for 13 compounds from patent publication EP4781984A1 (Beyang Therapeutics Co., Ltd., priority 2023, dated 2025).

Each structure is given as a SMILES string. Values after ≈ are worked out from the molar mass of the structure shown.

Broadly, the IC50 is the concentration that gives 50% inhibition. The term fraction unbound denotes the share of the substance not bound to proteins or other matrix. A high value points to weak binding. One may read the solubility as the dissolved amount per volume that the medium holds. The low end stands for a poorly soluble substance, the high end for a readily soluble substance.

Series [1] concerns the target T1, VEGFR3 (Homo sapiens, UniProt P35916).
T1 construct: purchased Invitrogen PV4129
As to the kind of experiment: Kinase inhibitory activity, Mobility Shift Assay (VEGFR3). The series is classed as biochemical. The procedure:
(§1) Assay for Inhibitory Activity of Compounds Against VEGFR and EGFR Kinases
(§2) This assay directly monitors the inhibitory activity of compounds on kinase phosphorylation by measuring non-phosphorylated and phosphorylated substrates in the kinase reaction using Mobility Shift Assays/IMAP™ analysis. Table 2. Reagents and Instruments
(§3) Kinase and DTT were added to 1X kinase buffer to form a 2.5X kinase solution; 10 µL of the 2.5X kinase solution was transferred to a 384-well reaction plate, and 1X kinase buffer was added to the negative control wells. The plate was incubated at room temperature for 10 minutes; FAM-labeled peptide, MgCl2, ATP, and other reagents were added to 1X kinase buffer to form a 2.5X substrate solution; 10 µL of the above 2.5X substrate solution was transferred to the 384-well reaction plate; the plate was incubated at 28°C for varying times, and then 25 µL of stop solution was added to the 384-well reaction plate to terminate the reaction. Conversion rate data were read on a CaliperEZ Reader II. […] IC50 values were fitted using XLFit excel add-in version 5.4.0.8. Y = Bottom + (Top−Bottom)/(1 + […]) [formula]
(§4) X is the log value of compound concentration, Y is the inhibition rate (% inhibition).

In series [2] the test system is melanin. Nature of the series: Compound binding to melanin. The series is classed as in vitro ADME. To be noted: cuttlefish (Sepia officinalis), melanin suspension (1 mg/mL), percentage of free drug (not bound to melanin), 2 µM compound, melanin 1 mg/mL in PBS pH 7.4, 37°C. In outline: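 Compound at 2 µM final incubated with 1 mg/mL Sepia melanin in PBS pH 7.4, 37°C, 2 hours with shaking; blank in PBS with 0.1% BSA. Supernatant concentration by LC-MS/MS. Fb = 100 − (Ctest/Ccontrol) × 100%.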

Series [3] concerns the target T2, VEGFR1 (Homo sapiens, UniProt P17948).
T2 construct: purchased Invitrogen PR6731B
Nature of the series: Kinase inhibitory activity, Mobility Shift Assay (VEGFR1). The series is classed as biochemical. As to the method: as §1, §2, §3, §4

Series [4] has as its target T3, VEGFR2 (Homo sapiens, UniProt P35968).
T3 construct: purchased Carna 08-191
Nature of the series: Kinase inhibitory activity, Mobility Shift Assay (VEGFR2). The series is classed as biochemical. As to the method:
as §1, §2, §3, §4

Series [5] is described as follows: Thermodynamic solubility test. The series is classed as physicochemical. The following applies: buffer solution, aqueous buffer, thermodynamic from solid; thermodynamic solubility, room temperature, 8 hours shaking; buffers pH 2.0, 6.5, 7.4 used, pH of the tabulated value not given. The method in brief:
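Samples sonicated 10 min, shaken 8 h at room temperature, re-sonicated and centrifuged at 13000 rpm for 15 min. Supernatant recentrifuged and analysed by LC-MS, with concentrations quantified against a 3–5 point calibration curve.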

Series [6] is described as follows: Ophthalmic formulations based on polyethylene glycol series vehicles: composition and state (Example 7). It counts as physicochemical. The following applies: Table 12: 1mg/ml; Polyethylene glycol 400 5, Hydroxypropyl-β-cyclodextrin 10, Tris-HCl buffer (pH 8.3) 10mM, Hydroxypropyl methylcellulose 1, Poloxamer 188 1. The source says: In the following ophthalmic formulation preparation examples, "solution" refers to a clear, transparent liquid without visible insoluble matter. "Near-clear solution" refers to a liquid that appears close to a solution upon visual observation but may contain a small amount of insoluble particles or have a slightly opaque color. "Suspension" refers to a liquid that is visibly turbid or opaque. "Gel" refers to a completely or partially gel-like solid.
Example 7: Ophthalmic Formulations Based on Polyethylene Glycol Series Vehicles
According to the formulation composition shown in the tables below, weigh the compound powder, add it to polyethylene glycol 400, and sonicate until dissolved or nearly dissolved (heat to 50°C if necessary). Add this to a Tris-HCl buffer solution containing hydroxypropyl-β-cyclodextrin, poloxamer 188, and gellan gum (or other viscosity modifier), vortex to mix, and prepare into an eye drop formulation.

Series [7] can be described thus: Plasma and ocular tissue distribution after single ocular administration of formulations in Dutch Belted rabbits (Example 9). To be noted: for concentration at 0.5 h: male, rabbit, plasma, other: ocular administration (eye drops). It counts as in vivo. As to the method: Male Dutch Belted rabbits used in this experiment were purchased from Pizhou Dongfang Breeding Co., Ltd., with animal weights ranging from 1.5 to 2.5 kg. All procedures performed on experimental animals in this experiment complied with the relevant SOP requirements of Suzhou Sunstone New Drug Development Co., Ltd. and were approved by the Institutional Animal Care and Use Committee (IACUC) of Suzhou Sunstone New Drug Development Co., Ltd. Formulation Preparation: Weigh approximately 1 mg of the test substance into a glass vial. After necessary calculation/conversion, sequentially add the eye drop formulation vehicle (Tris-HCl buffer (0.05 mol/L): Tween 80: 0.5% CMC-Na = 49: 1:50). Vortex and sonicate after adding Tris-HCl buffer and Tween 80, then add 0.5% CMC-Na, vortex, and sonicate or cut if necessary, to prepare a 1 mg/mL dosing formulation. All prepared dosing formulations were freshly prepared on the day of administration, sampled, and the actual concentration of the dosing formulation was determined.
On the day of the experiment, animals were administered 1 mg/mL (0.05 mg/eye, 50 µL/eye). There were 2 animals per group. Animals were euthanized at 0.5, 4, or 8 hours after administration, respectively, by an appropriate method, and blood samples and ocular tissues (i.e., cornea, retina, choroid, and sclera) were collected. The collected 1 mL of whole blood was placed in an EDTA-K2 anticoagulant tube, inverted several times to mix thoroughly, and centrifuged (1500-1600 g) for 10 minutes within 30 minutes to separate plasma. The obtained plasma samples were stored at -80°C for bioanalysis. After collection, ocular tissues were washed with pre-cooled saline, dried, and stored at -80°C or under equivalent conditions for subsequent tissue homogenization and sample analysis. For ocular tissues requiring homogenization, the entire or a portion of the tissue was selected, accurately weighed, and homogenized at a 1:10 ratio with 20% methanol-water. The tissue homogenate was stored at -80°C for sample analysis. The concentrations of each analyte in rabbit ocular tissues and plasma obtained in this experiment were determined using an LC-MS/MS analytical method. The matrices were Dutch rabbit plasma (EDTA-K2 anticoagulated) and rabbit ocular tissue (1:10, 20% methanol-water). Left and right eyes were tested separately. BLOQ (Below the Limit of Quantification) is the lowest analyte concentration that can be quantified with acceptable precision and accuracy. Compounds were diluted 1:10 with homogenate before analysis, and if the concentration after dilution was less than 1 ng/mL, it was marked as BLOQ.
Example 9: Detection of Plasma and Ocular Tissue Distribution after Single Ocular Administration of Formulations in Dutch Belted Rabbits
The experimental procedure refers to Example 6. Animals were administered eye drops at 5 mg/mL (0.25 mg/eye, 50 µL/eye) or 1 mg/mL (0.05 mg/eye, 50 µL/eye), respectively. Table 22 Experimental Results
Except for compound I-32, the other components of Suspension A and Solution B are respectively: • Suspension A: Tris(hydroxymethyl)aminomethane-Hydrochloric Acid Buffer (0.05M): Tween 80: 0.5% (w/v) Sodium Carboxymethylcellulose aqueous solution = 49:1:50 (v/v/v); • Solution B: Polyethylene Glycol 400: 50mM Tris(hydroxymethyl)aminomethane-Hydrochloric Acid Buffer (containing 10% Hydroxypropyl-β-cyclodextrin, 1% Poloxamer 188, 0.3% Gellan Gum Gelrite, w/v) = 5:95 (v/v).

The mark [8] stands for this setting: Solution B, 1 mg/mL (0.05 mg/eye, 50 µL/eye), formulation pH 8.3.
[9] abbreviates: Suspension A, 1 mg/mL (0.05 mg/eye, 50 µL/eye), formulation pH 8.4.
The mark [10] stands for this setting: Suspension A, 5 mg/mL (0.25 mg/eye, 50 µL/eye), formulation pH 8.4.

T3 sequence (P35968 20-1356): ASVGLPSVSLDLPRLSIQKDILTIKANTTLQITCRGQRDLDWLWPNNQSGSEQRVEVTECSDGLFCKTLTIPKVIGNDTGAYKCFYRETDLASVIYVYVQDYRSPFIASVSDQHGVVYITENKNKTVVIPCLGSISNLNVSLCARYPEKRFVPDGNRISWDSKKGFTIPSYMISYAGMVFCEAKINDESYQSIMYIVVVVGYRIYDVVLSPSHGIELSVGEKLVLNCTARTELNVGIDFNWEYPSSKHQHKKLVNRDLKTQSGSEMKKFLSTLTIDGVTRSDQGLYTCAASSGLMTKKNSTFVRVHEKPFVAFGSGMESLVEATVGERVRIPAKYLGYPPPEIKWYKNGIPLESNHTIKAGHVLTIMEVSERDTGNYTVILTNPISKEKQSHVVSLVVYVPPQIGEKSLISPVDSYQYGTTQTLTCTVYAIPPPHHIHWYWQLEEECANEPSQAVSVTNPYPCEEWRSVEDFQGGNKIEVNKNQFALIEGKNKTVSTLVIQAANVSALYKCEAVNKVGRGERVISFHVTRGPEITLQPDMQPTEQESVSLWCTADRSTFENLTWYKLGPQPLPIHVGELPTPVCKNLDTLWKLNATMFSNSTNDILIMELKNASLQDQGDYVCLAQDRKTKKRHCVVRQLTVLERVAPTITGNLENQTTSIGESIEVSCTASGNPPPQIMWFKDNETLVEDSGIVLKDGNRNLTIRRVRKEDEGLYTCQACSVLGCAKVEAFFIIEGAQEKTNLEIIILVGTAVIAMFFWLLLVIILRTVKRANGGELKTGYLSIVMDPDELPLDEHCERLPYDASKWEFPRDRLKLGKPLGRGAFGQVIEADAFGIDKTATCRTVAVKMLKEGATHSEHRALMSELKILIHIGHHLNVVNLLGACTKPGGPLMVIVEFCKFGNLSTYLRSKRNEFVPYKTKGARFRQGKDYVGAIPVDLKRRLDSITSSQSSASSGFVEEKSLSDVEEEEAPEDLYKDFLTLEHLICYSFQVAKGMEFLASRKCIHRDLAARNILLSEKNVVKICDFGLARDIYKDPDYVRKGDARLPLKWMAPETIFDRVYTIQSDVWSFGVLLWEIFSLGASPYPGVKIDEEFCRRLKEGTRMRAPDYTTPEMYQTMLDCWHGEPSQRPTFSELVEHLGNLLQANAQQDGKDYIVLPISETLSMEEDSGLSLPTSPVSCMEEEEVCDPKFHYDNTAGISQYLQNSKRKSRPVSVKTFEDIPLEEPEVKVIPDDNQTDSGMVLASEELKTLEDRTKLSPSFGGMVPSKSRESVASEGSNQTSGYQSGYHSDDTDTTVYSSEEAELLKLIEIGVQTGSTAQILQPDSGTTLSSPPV
T2 sequence (P17948 27-1338): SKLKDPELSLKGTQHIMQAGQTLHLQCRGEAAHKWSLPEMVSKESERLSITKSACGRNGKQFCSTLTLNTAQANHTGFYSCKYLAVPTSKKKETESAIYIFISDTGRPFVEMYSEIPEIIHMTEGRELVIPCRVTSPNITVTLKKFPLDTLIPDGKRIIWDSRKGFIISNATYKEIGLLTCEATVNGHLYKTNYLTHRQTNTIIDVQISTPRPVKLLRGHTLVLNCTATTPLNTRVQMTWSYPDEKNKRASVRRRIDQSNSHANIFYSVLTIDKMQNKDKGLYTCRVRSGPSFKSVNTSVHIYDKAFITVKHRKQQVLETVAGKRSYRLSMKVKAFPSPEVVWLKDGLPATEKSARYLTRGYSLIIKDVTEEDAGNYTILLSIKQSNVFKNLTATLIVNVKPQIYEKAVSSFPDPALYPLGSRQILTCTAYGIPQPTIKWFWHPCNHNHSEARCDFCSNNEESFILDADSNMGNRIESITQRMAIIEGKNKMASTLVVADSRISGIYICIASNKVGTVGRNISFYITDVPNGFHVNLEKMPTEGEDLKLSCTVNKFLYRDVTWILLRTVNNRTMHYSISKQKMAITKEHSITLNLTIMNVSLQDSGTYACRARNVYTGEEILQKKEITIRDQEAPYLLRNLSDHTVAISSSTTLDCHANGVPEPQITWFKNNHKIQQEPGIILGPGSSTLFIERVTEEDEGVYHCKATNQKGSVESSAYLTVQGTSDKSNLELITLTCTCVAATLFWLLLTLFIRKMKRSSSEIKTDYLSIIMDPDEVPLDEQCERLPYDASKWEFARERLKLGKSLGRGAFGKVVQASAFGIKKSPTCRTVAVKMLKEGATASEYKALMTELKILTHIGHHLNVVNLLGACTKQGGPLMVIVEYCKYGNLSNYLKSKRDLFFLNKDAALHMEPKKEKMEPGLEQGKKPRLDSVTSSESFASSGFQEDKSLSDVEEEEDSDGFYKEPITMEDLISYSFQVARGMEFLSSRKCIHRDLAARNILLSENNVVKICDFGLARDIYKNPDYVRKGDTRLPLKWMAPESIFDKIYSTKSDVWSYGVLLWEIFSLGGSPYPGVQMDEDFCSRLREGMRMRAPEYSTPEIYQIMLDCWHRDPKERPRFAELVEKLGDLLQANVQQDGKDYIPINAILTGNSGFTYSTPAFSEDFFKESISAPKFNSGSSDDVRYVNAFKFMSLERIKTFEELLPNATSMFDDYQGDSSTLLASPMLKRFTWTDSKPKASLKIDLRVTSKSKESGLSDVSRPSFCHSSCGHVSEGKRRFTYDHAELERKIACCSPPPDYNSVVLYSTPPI
T1 sequence (P35916 25-1363): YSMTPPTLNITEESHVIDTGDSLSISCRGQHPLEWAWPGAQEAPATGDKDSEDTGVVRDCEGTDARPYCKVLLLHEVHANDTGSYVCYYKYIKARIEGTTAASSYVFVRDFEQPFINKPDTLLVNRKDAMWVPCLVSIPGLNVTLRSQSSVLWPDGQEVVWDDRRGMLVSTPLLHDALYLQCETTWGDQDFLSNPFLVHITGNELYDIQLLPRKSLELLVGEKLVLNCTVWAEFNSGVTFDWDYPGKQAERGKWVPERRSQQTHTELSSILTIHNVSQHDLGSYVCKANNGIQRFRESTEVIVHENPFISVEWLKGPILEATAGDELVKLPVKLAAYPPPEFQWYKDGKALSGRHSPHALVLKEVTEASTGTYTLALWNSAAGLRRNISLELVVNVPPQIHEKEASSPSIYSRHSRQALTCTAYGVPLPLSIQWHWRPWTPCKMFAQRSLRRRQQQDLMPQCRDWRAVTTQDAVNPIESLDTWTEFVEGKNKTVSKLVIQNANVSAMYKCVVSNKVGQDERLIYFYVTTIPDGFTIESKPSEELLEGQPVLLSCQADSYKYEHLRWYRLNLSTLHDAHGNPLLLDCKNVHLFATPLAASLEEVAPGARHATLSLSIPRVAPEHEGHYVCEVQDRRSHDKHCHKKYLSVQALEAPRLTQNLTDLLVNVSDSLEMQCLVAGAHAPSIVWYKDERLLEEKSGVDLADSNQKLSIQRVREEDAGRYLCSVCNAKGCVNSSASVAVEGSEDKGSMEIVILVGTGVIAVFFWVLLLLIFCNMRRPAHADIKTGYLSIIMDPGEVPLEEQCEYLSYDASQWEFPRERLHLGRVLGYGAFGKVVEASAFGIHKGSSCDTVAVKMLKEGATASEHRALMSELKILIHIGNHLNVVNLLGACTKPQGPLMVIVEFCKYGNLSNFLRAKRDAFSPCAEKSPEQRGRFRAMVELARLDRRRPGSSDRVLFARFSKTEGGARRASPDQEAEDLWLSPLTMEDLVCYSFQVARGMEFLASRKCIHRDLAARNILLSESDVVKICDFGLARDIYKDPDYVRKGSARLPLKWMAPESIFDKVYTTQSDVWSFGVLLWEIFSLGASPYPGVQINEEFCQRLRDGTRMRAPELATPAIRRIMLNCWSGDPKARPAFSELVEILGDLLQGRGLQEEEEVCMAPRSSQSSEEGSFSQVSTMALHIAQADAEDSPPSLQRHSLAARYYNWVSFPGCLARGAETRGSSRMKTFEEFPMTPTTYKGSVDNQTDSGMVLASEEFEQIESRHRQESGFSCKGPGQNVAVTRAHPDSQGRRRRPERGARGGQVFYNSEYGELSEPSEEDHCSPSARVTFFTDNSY

For `CN1CCN(c2ccc(/C=C/c3n[nH]c4cc(Sc5ccccc5C(=O)NC5CC5)ccc34)nc2)CC1` [Compound I-38, N-cyclopropyl-2-({3-[(E)-2-[5-(4-methylpiperazin-1-yl)pyridin-2-yl]ethenyl]-1H-indazol-6-yl}thio)benzamide], the IC50 in series [1], in series [3] and in series [4] was at most 1 nM in each case. For the same compound, the fraction unbound at 2 h, 2 µM in series [2] was in the range of 0.01 to 0.05.

Turning to `CNC(=O)c1ccccc1Sc1ccc2c(/C=C/c3ccc(OC[C@@H]4CCN(C)C4)cn3)n[nH]c2c1` [Compound I-39], the IC50 in series [3] and in series [4] was at most 1 nM each time.

Consider `CNC(=O)c1ccccc1Sc1ccc2c(/C=C/c3ccc(OCCN4CCN(C)CC4)cn3)n[nH]c2c1` [Compound I-4], for which the IC50 in series [1], in series [3] and in series [4] was at most 1 nM in each case. Moreover, the concentration in solution in series [5] (solubility at 8 h) was 413 µg/mL (≈ 781 µM). The fraction unbound at 2 h, 2 µM in series [2] was over 0.05.

`CNC(=O)c1ccccc1Sc1ccc2c(C#Cc3cc(OCCN4CCCC4)ccn3)n[nH]c2c1` [Compound I-23]: the IC50 in series [1] is over 100 nM. The compound further came in with a solubility at 8 h in series [5] of 859 µg/mL (≈ 1730 µM). Besides, in series [2], the fraction unbound at 2 h, 2 µM lay within 0.01 to 0.05.

With `CNC(=O)c1ccccc1Sc1ccc2c(/C=C/c3ccn(CCN4CCCC4)n3)n[nH]c2c1` [Compound I-13], the IC50 in series [1] is at most 1 nM. For the same compound, the fraction unbound at 2 h, 2 µM in series [2] was in the range of 0.01 to 0.05.

The compound `CNC(=O)c1c(F)cccc1Sc1ccc2c(/C=C/c3ccc(OCCN4CCCC4)cn3)n[nH]c2c1` [Compound I-36, 2-fluoro-N-methyl-6-({3-[(E)-2-{5-[2-(pyrrolidin-1-yl)ethoxy]pyridin-2-yl}ethenyl]-1H-indazol-6-yl}sulfanyl)benzamide] showed a solubility at 8 h in series [5] of 16.2 µg/mL (≈ 31.3 µM). The compound further had a fraction unbound at 2 h, 2 µM in series [2] of over 0.05. In addition, the IC50 in series [3] was over 100 nM.

`O=C(NC1CC1)c1ccccc1Sc1ccc2c(/C=C/c3cccc(CCCN4CCCC4)n3)n[nH]c2c1` [Compound I-121]: the IC50 in series [1] and in series [4] was at most 1 nM each time.

As for `CN(C)Cc1ccc(/C=C/c2n[nH]c3cc(Sc4ccccc4C(=O)NC4CC4)ccc23)nc1` [Compound I-40, N-cyclopropyl-2-((3-((E)-2-(5-((dimethylamino)methyl)pyridin-2-yl)ethenyl)-1H-indazol-6-yl)thio)benzamide], the fraction unbound at 2 h, 2 µM in series [2] lay in the range of 0.01 to 0.05. Also, in series [3], the IC50 is at most 1 nM.

Regarding `CNC(=O)c1ccccc1Sc1ccc2c(/C=C/c3ccc(O)cn3)n[nH]c2c1` [Compound I-10, 2-({3-[(E)-2-(5-hydroxypyridin-2-yl)ethenyl]-1H-indazol-6-yl}thio)-N-methylbenzamide], in series [1], the IC50 was at most 1 nM.

`CNC(=O)c1ccccc1Sc1ccc2c(/C=C/c3cnn(CCCN4CCCC4)c3)n[nH]c2c1` [Compound I-32, N-methyl-2-((3-((E)-2-(1-(3-(pyrrolidin-1-yl)propyl)-1H-pyrazol-4-yl)ethenyl)-1H-indazol-6-yl)thio)benzamide] came in with a solubility at 8 h in series [5] of 327 µg/mL (≈ 672 µM). Also, the fraction unbound at 2 h, 2 µM in series [2] was 0.01 to 0.05. For the same compound, in series [6], the “State Description: pH” value is about 8 and the “State Description: state” value was “solution”. For the same compound, in series [7] (setting [8]), the “Choroid AUC” value is 381 ng·h/g, the “Conjunctiva AUC” value came out at 2142 ng·h/g, the “Cornea AUC” value was 590 ng·h/g and the “Plasma Concentration 0.5h” value is “BLOQ”. Also, in series [7] (setting [8]), the “Retina AUC” value was determined as 784 ng·h/g and the “Sclera AUC” value was found to be 998 ng·h/g. In series [7] (setting [9]), the “Choroid AUC” value amounted to 526 ng·h/g, the “Conjunctiva AUC” value was found to be 6157 ng·h/g, the “Cornea AUC” value came to 3380 ng·h/g and the “Iris AUC” value worked out at 162 ng·h/g. For the same compound, in series [7] (setting [9]), the “Retina AUC” value was determined as 330 ng·h/g, the “Sclera AUC” value was 2175 ng·h/g and the concentration at 0.5 h worked out at 2.4 ng/mL. In series [7] (setting [10]), the “Choroid AUC” value stood at 1594.5 ng·h/g, the “Conjunctiva AUC” value was found to be 17380.5 ng·h/g, the “Cornea AUC” value came out at 5175 ng·h/g and the “Iris AUC” value came to 549.5 ng·h/g. In addition, in series [7] (setting [10]), the “Retina AUC” value stood at 613 ng·h/g, the “Sclera AUC” value turned out to be 2439.5 ng·h/g and the concentration at 0.5 h came to 5.6 ng/mL.

For `CNC(=O)c1ccccc1Sc1ccc2c(/C=C/c3ccc(OCCN4CCCC4)cn3)n[nH]c2c1` [Compound I-6], in series [5], the solubility at 8 h came to 226 µg/mL (≈ 452 µM). The same compound came in with a fraction unbound at 2 h, 2 µM in series [2] of 0.01 to 0.05. For the same compound, the IC50 in series [3] is at most 1 nM.

Consider `CNC(=O)c1ccccc1Sc1ccc2c(Nc3ccc(OCCN4CCCC4)cn3)n[nH]c2c1` [Compound I-30, N-methyl-2-((3-((5-(2-(pyrrolidin-1-yl)ethoxy)pyridin-2-yl)amino)-1H-indazol-6-yl)thio)benzamide], for which the IC50 in series [1], in series [3] and in series [4] was over 100 nM throughout.

As for `CNC(=O)c1ccccc1Sc1ccc2c(/C=C/c3ccc(OCCN4CCOCC4)cn3)n[nH]c2c1` [Compound I-3, N-methyl-2-((3-((E)-2-(5-(2-(morpholin-4-yl)ethoxy)pyridin-2-yl)ethenyl)-1H-indazol-6-yl)thio)benzamide], the IC50 in series [1] and in series [3] was at most 1 nM each time. In series [5], this compound returned a solubility at 8 h of 0.5 µg/mL (≈ 0.97 µM). For the same compound, in series [2], the fraction unbound at 2 h, 2 µM was in the range of 0.01 to 0.05.
